Experimental data from patent publication US20240140980A1, “HETEROCYCLIC INHIBITORS OF CD73 FOR TREATMENT OF DISEASE” (Teon Therapeutics, Inc., priority 2022, published 2024).
pEC50, pIC50: −log10 of the molar value.

Assays:
CD73 [1] = biological target: T1, CD73 (Homo sapiens (Human), UniProt P21589); experiment: Biochemical CD73 Assay (Malachite Green free phosphate detection); details: recombinant human CD73 2 nM, AMP 40 μM, 45 min at 37° C.
Experimental: Activity of recombinant CD73 was measured by quantification of free phosphate using the Malachite Green detection system (R&D Systems #DY996). Test compounds were solubilized in DMSO and dispensed into 384-well polystyrene plates in a 8-point 3× titration in duplicates. Then, 10 μL of 4 nM human CD73 enzyme (Novoprotein #C446) in phosphate-free assay buffer (10 mM HEPES, pH 7.4, 125 mM NaCl, 1 mM KCl, 10 mM glucose, 2 mM MgCl2) was added to the plates. The compound and enzyme were incubated for 15 min at RT. Then, 10 μL of 80 μM AMP (Sigma Aldrich #A1752) in the assay buffer was added and the reaction mixture was incubated for 45 min at 37° C. The final concentrations of CD73 and AMP in the reaction were 2 nM and 40 μM, respectively. The reaction was stopped by adding 5 μL of Malachite Green reagent A and incubating for 10 min at RT, followed by addition of 5 μL of Malachite Green reagent B and incubation for 20 min at RT. Absorbance was then read at 620 nm with the Flexstation spectrophotometer (Molecular Devices). The IC50 values were determined using a four-parameter nonlinear regression curve fit.

CD73 [2] = biological target: T1, CD73; experiment: Cellular CD73 Assay (primary human CD3+ T-cells with AMP); type: cell-based; details: primary human peripheral blood CD3+ T-cells, 40 μM AMP, 3 days; readout (cell division or IL-2/IFN-γ) not specified for the column
Experimental: Primary human peripheral blood CD3+ T-cells obtained from AllCells were thawed and cultured for 24 h in a complete growth medium (Stemline T-cell expansion medium, Sigma #S1694) supplemented with 1 mM L-glutamine, 50 IU/mL of IL-2 and 25 μL/mL of Dynabeads™ Human T-Activator CD3/CD28 (Thermo-Fisher #11161D) at a density of 10^6 cells/mL. Then, cells were labeled with 1.25 μM Cell Trace Violet (Thermo-Fisher #C34557) according to the manufacturer's instructions. Labeled cells were resuspended in a warm complete growth medium and plated onto U-bottom 96-well plates at 25,000 cells/90 μL/well. Next, 500× serial compound dilutions were prepared in DMSO in a 8-point 3-fold titration and then diluted 1:25 into a complete growth medium, generating 20× compound dilutions. Then, 5 μL of 20× compound dilutions was added to the cells and incubated for 60 min at 37° C. After this, 5 μL of 20×AMP was added to a final concentration of 40 μM. Treated cells were cultured for 3 days at 37° C., 5% CO2. Thereafter, cells were gently pelleted by centrifugation, and supernatants were collected and frozen at −80° C. for subsequent cytokine analysis. Cell pellets were resuspended in 100 μL of PBS/2% FBS and gently pipetted up and down to produce a single cell suspension. Then, 3 μL of 7-AAD (BD Biosciences #559925) was added to each well and plates were incubated on ice for 5 min. Cells were then washed and resuspended in 150 μL of PBS/2% FBS. Divided and non-divided live cells were quantified by Attune NxT flow cytometer. Cell Trace Violet-labeled cells cultured without a T-cell activator were used as the nondividing control.
For IL-2 and IFN-γ cytokine analysis, supernatants were thawed on ice, diluted 1:10 in the buffer. The concentration of cytokines was determined using Meso Scale Discovery according to the manufacturer's instructions (Meso Scale Discovery). The EC50 values were determined using a four-parameter nonlinear regression curve fit (GraphPad Prism Version 9.2, GraphPad Software Inc., San Diego, CA).

T1 sequence (P21589 27-574): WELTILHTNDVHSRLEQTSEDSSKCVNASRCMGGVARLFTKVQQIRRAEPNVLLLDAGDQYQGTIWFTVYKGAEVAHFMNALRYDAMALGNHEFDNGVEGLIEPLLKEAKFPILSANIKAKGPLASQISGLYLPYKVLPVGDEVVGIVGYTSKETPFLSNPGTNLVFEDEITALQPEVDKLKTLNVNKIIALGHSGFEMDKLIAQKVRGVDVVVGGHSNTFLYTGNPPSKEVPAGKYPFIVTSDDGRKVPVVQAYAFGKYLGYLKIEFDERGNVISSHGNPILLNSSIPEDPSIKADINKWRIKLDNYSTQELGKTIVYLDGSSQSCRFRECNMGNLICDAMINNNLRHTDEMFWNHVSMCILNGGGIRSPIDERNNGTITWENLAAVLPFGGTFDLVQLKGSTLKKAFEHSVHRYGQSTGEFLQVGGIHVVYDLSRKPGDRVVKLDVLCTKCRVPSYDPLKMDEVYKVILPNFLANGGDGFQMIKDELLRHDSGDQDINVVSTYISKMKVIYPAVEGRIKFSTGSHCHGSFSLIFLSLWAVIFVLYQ

SMILES	pIC50 (CD73 [1])	pEC50 (CD73 [2])
COC[C@@](OC[C@H]1O[C@@H](n2ncc3c(NC4CCCC4)nc(Cl)nc32)[C@H](O)[C@@H]1O)(C(=O)N=S(C)(=O)NC(=O)C(C)C)P(=O)(O)O (single isomer, unassigned) [Example 15]	8.20	8.11
COC[C@@](OC[C@H]1O[C@@H](n2ncc3c(NC4CCCC4)nc(Cl)nc32)[C@H](O)[C@@H]1O)(C(=O)N=S(C)(=O)NC(=O)C(C)C)P(=O)(O)O (single isomer, unassigned) [Example 16]	9.11	8.87
COC[C@@](OC[C@H]1O[C@@H](n2ncc3c(NC4CCCC4)nc(Cl)nc32)[C@H](O)[C@@H]1O)(C(=O)N=[S@](C)(N)=O)P(=O)(O)O [Example 1, ((2S)-1-((Amino(methyl)(oxo)-λ^6-sulfaneylidene)amino)-2-(((2R,3S,4R,5R)-5-(6-chloro-4-(cyclopentylamino)-1H-pyrazolo[3,4-d]pyrimidin-1-yl)-3,4-dihydroxytetrahydrofuran-2-yl)methoxy)-3-methoxy-1-oxopropan-2-yl)phosphonic Acid]	9.03	9.29
COC[C@@](OC[C@H]1O[C@@H](n2ncc3c(NC4CCCC4)nc(Cl)nc32)[C@H](O)[C@@H]1O)(C(=O)N=[S@@](C)(N)=O)P(=O)(O)O [Example 3, ((2S)-1-((Amino(methyl)(oxo)-λ^6-sulfaneylidene)amino)-2-(((2R,3S,4R,5R)-5-(6-chloro-4-(cyclopentylamino)-1H-pyrazolo[3,4-d]pyrimidin-1-yl)-3,4-dihydroxytetrahydrofuran-2-yl)methoxy)-3-methoxy-1-oxopropan-2-yl)phosphonic Acid]	9.00	8.82
CNC(=O)N[S@](C)(=O)=NC(=O)[C@@](COC)(OC[C@H]1O[C@@H](n2ncc3c(NC4CCCC4)nc(Cl)nc32)[C@H](O)[C@@H]1O)P(=O)(O)O [Example 9, ((S)-2-(((2R,3S,4R,5R)-5-(6-Chloro-4-(cyclopentylamino)-1H-pyrazolo[3,4-d]pyrimidin-1-yl)-3,4-dihydroxytetrahydrofuran-2-yl)methoxy)-3-methoxy-1-(((R)-methyl(3-methylureido)(oxo)-λ^6-sulfaneylidene)amino)-1-oxopropan-2-yl)phosphonic Acid]	9.05	8.80
CNC(=O)N[S@@](C)(=O)=NC(=O)[C@@](COC)(OC[C@H]1O[C@@H](n2ncc3c(NC4CCCC4)nc(Cl)nc32)[C@H](O)[C@@H]1O)P(=O)(O)O [Example 10, ((S)-2-(((2R,3S,4R,5R)-5-(6-Chloro-4-(cyclopentylamino)-1H-pyrazolo[3,4-d]pyrimidin-1-yl)-3,4-dihydroxytetrahydrofuran-2-yl)methoxy)-3-methoxy-1-(((S)-methyl(3-methylureido)(oxo)-λ^6-sulfaneylidene)amino)-1-oxopropan-2-yl)phosphonic Acid]	9.51	9.14
COC[C@@](OC[C@H]1O[C@@H](n2ncc3c(NC4CCCC4)nc(Cl)nc32)[C@H](O)[C@@H]1O)(C(=O)N=[S@@](C)(=O)NC(=O)C1CC1)P(=O)(O)O [Example 11, ((S)-2-(((2R,3S,4R,5R)-5-(6-Chloro-4-(cyclopentylamino)-1H-pyrazolo[3,4-d]pyrimidin-1-yl)-3,4-dihydroxytetrahydrofuran-2-yl)methoxy)-1-(((R)-cyclopropanecarboxamido(methyl)(oxo)-λ^6-sulfaneylidene)amino)-3-methoxy-1-oxopropan-2-yl)phosphonic Acid]	9.11	9.05
COC[C@@](OC[C@H]1O[C@@H](n2ncc3c(NC4CCCC4)nc(Cl)nc32)[C@H](O)[C@@H]1O)(C(=O)N=[S@](C)(=O)NC(=O)C1CC1)P(=O)(O)O [Example 12, ((S)-2-(((2R,3S,4R,5R)-5-(6-Chloro-4-(cyclopentylamino)-1H-pyrazolo[3,4-d]pyrimidin-1-yl)-3,4-dihydroxytetrahydrofuran-2-yl)methoxy)-1-(((S)-cyclopropanecarboxamido(methyl)(oxo)-λ^6-sulfaneylidene)amino)-3-methoxy-1-oxopropan-2-yl)phosphonic Acid]	9.35	9.04
CCC(=O)NS(C)(=O)=NC(=O)[C@@](COC)(OC[C@H]1O[C@@H](n2ncc3c(NC4CCCC4)nc(Cl)nc32)[C@H](O)[C@@H]1O)P(=O)(O)O (stereo partly drawn) [Example 13, ((2S)-2-(((2R,3S,4R,5R)-5-(6-Chloro-4-(cyclopentylamino)-1H-pyrazolo[3,4-d]pyrimidin-1-yl)-3,4-dihydroxytetrahydrofuran-2-yl)methoxy)-3-methoxy-1-((methyl(oxo)(propionamido)-λ^6-sulfaneylidene)amino)-1-oxopropan-2-yl)phosphonic Acid]	9.15	9.17
CCC(=O)NS(C)(=O)=NC(=O)[C@@](COC)(OC[C@H]1O[C@@H](n2ncc3c(NC4CCCC4)nc(Cl)nc32)[C@H](O)[C@@H]1O)P(=O)(O)O (stereo partly drawn) [Example 14, ((2S)-2-(((2R,3S,4R,5R)-5-(6-Chloro-4-(cyclopentylamino)-1H-pyrazolo[3,4-d]pyrimidin-1-yl)-3,4-dihydroxytetrahydrofuran-2-yl)methoxy)-3-methoxy-1-((methyl(oxo)(propionamido)-λ^6-sulfaneylidene)amino)-1-oxopropan-2-yl)phosphonic Acid]	9.13	8.94
COC[C@@](OC[C@H]1O[C@@H](n2ncc3c(NC4CCCC4)nc(Cl)nc32)[C@H](O)[C@@H]1O)(C(=O)N=[S@](C)(=O)NC(C)=O)P(=O)(O)O [Example 17, ((S)-1-(((S)-Acetamido(methyl)(oxo)-λ^6-sulfaneylidene)amino)-2-(((2R,3S,4R,5R)-5-(6-chloro-4-(cyclopentylamino)-1H-pyrazolo[3,4-d]pyrimidin-1-yl)-3,4-dihydroxytetrahydrofuran-2-yl)methoxy)-3-methoxy-1-oxopropan-2-yl)phosphonic Acid]	9.24	9.01
COC[C@@](OC[C@H]1O[C@@H](n2ncc3c(NC4CCCC4)nc(Cl)nc32)[C@H](O)[C@@H]1O)(C(=O)N=[S@](C)(=O)NC(=O)OC)P(=O)(O)O [Example 18, ((S)-2-(((2R,3S,4R,5R)-5-(6-Chloro-4-(cyclopentylamino)-1H-pyrazolo[3,4-d]pyrimidin-1-yl)-3,4-dihydroxytetrahydrofuran-2-yl)methoxy)-3-methoxy-1-(((S)-((methoxycarbonyl)amino)(methyl)(oxo)-λ^6-sulfaneylidene)amino)-1-oxopropan-2-yl)phosphonic Acid]	9.30	9.00
